Assay results taken from ChEMBL document CHEMBL1147332, “Screening of marine invertebrates for the presence of ergosterol-sensitive antifungal compounds” (1993).
The source made the active and inactive calls. The rule behind the calls is not given here.

Tests used:
Candida albicans [1] = assay: Antifungal activity against Candida albicans after 16 to 19 hrs by disk diffusion assay in presence of 100 ppm ergosterol; format: functional, organism-based
Candida albicans [2] = assay: Antifungal activity against Candida albicans at 1 ug after 16 to 19 hrs by disk diffusion assay in presence of increasing concentration of ergosterol; format: functional, organism-based
Candida albicans [3] = assay: Antifungal activity against Candida albicans at 2 ug after 16 to 19 hrs by disk diffusion assay in presence of 20 ppm ergosterol; format: functional
Candida albicans [4] = assay: Antifungal activity against Candida albicans after 16 to 19 hrs by disk diffusion assay; format: functional, organism-based
Candida albicans [5] = assay: Antifungal activity against Candida albicans at 5 ug after 16 to 19 hrs by disk diffusion assay in presence of 120 ppm ergosterol; format: functional
Candida albicans [6] = assay: Antifungal activity against Candida albicans at <= 1 ug after 16 to 19 hrs by disk diffusion assay; format: functional, organism-based

SMILES	Activity (Candida albicans [4])	Activity (Candida albicans [6])	further results
Clc1ccc(COC(Cn2ccnc2)c2ccc(Cl)cc2Cl)c(Cl)c1 (stereo not drawn)			Activity (Candida albicans [1]): Active
C[C@@H]1[C@H](O)[C@@H](C)/C=C/C=C/C=C/C=C/C=C/C=C/C=C/[C@H](O[C@@H]2O[C@H](C)[C@@H](O)[C@H](N)[C@@H]2O)C[C@@H]2O[C@](O)(C[C@@H](O)C[C@@H](O)[C@H](O)CC[C@@H](O)C[C@@H](O)CC(=O)O[C@H]1C)C[C@H](O)[C@H]2C(=O)O [AMPHOTERICIN B]			Activity (Candida albicans [2]): Active; Activity (Candida albicans [3]): 50%
C/C1=C\[C@H](C)C[C@H](C)OC(=O)C[C@H](c2ccc(O)cc2)NC(=O)[C@@H](Cc2c(Br)[nH]c3ccccc23)N(C)C(=O)[C@H](C)NC(=O)[C@@H](C)C1 [JASPAMIDE]	inactive	Active	Activity (Candida albicans [5]): 50%
CO[C@H]([C@H](C)/C=C/N(C)C=O)[C@@H](C)C(=O)CC[C@H](C)[C@H](C[C@@H]1OC(=O)C[C@@H](OC(N)=O)C[C@H](C)C[C@H](O)[C@H](C)[C@@H](OC)c2coc(n2)-c2coc(n2)-c2coc(n2)/C=C/C[C@H](OC)[C@H]1C)OC	inactive	Active	
